Earlier results, collected in patent publication US20090202668A1, “Use of a polyphenol in the treatment of the metabolic syndrome and endothelial dysfunction or other vascular sequellae” (priority 2006, published 2009).

Target: T1, CETP (Homo sapiens, UniProt P11597)
T1 sequence (P11597 18-493): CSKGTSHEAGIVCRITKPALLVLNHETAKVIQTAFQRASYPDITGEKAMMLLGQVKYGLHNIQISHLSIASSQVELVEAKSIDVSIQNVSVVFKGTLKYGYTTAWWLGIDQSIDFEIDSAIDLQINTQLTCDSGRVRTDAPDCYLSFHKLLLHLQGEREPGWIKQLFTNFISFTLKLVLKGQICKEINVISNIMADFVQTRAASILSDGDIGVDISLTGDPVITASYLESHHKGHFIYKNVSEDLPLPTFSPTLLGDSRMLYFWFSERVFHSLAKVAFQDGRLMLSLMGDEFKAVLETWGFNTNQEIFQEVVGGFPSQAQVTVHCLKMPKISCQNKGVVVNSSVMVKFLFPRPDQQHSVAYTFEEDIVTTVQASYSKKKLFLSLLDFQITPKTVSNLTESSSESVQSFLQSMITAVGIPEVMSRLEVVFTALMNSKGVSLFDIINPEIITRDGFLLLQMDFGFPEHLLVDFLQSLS

results of HDL-increasing treatment (CETP-inhibitor): poor results
SMILES: CCOC(=O)N1c2ccc(C(F)(F)F)cc2[C@@H](N(Cc2cc(C(F)(F)F)cc(C(F)(F)F)c2)C(=O)OC)C[C@H]1CC [Torcetrapib]
side effects: major side effects such as death
